Measured values from the NIST ThermoML archive (doi:10.1016/j.jct.2011.02.018).

Assay: xn = mol fraction of the nth substance listed
Conditions: 101 kPa, Liquid; for viscosity: Concentric cylinders viscometry; for mass density: Vibrating tube method

COC(C)(C)C [2-methoxy-2-methylpropane] + CCCO
Conditions	mass density, 293.15 K [kg/m3]	mass density, 298.15 K [kg/m3]	viscosity, 293.15 K [mPa·s]	viscosity, 298.15 K [mPa·s]
x1 = 0.0126	802.92	798.92	2.139	1.886
x1 = 0.0219	802.2	798.21	2.069	1.832
x1 = 0.0298	801.64	797.61	2.014	1.79
x1 = 0.0403	800.81	796.7	1.948	1.735
x1 = 0.05	800.12	796.03	1.885	1.683
x1 = 0.0599	799.4	795.34	1.835	1.635
x1 = 0.0699	798.72	794.62	1.78	1.589
x1 = 0.0798	798.25	794.12	1.736	1.552
x1 = 0.09	797.26	793.05	1.67	1.492
x1 = 0.1003	796.41	792.28	1.627	1.459
x1 = 0.1495	793.03	788.85	1.412	1.275
x1 = 0.1999	789.56	785.28	1.234	1.119
x1 = 0.25	786.15	781.8	1.089	0.9917
x1 = 0.3003	782.74	778.33	0.9663	0.8841
x1 = 0.35	779.47	774.99	0.8694	0.7946
x1 = 0.4015	776.15	771.6	0.7809	0.721
x1 = 0.4585	772.51	767.88	0.6993	0.6452
x1 = 0.5002	769.91	765.22	0.6508	0.6047
x1 = 0.5505	766.88	762.1	0.5953	0.5528
x1 = 0.5994	763.94	759.14	0.5508	0.52
x1 = 0.6475	761.06	756.21	0.5181	0.4813
x1 = 0.7026	757.85	752.93	0.4767	0.4449
x1 = 0.7536	754.92	749.92	0.4509	0.4165
x1 = 0.8033	752.01	747.01	0.4202	0.3922
x1 = 0.8471	749.51	744.41	0.4014	0.375
x1 = 0.9007	746.4	741.27	0.3802	0.3537
x1 = 0.9107	745.77	740.64	0.3705	0.3499
x1 = 0.9185	745.32	740.18	0.3679	0.3536
x1 = 0.9282	744.76	739.61	0.3645	0.3411
x1 = 0.94	744.07	738.91	0.3597	0.3383
x1 = 0.9493	743.55	738.35	0.3573	0.3241
x1 = 0.9599	742.94	737.74	0.3554	0.3246
x1 = 0.9698	742.37	737.19	0.349	0.329
x1 = 0.9796	741.82	736.64	0.3454	0.3252
x1 = 0.9882	741.32	736.14	0.344	0.3242
